#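 The compound was tested at five concentrations on cells cultured in 96-well plates, with a 48-hour exposure period. GI50 = concentration required for 50% inhibition of growth. Definition used: TGI = concentration required for complete inhibition of growth.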
# How the values were obtained:
# Experiment in all cases: NCI anticancer screen, dose series, 48 h
# A549 NSCLC = system: A549 NSCLC
# ACHN renal = system: ACHN renal
# CCRF-CEM leukemia = system: CCRF-CEM leukemia
# EKVX NSCLC = system: EKVX NSCLC
# HCC-2998 colon = system: HCC-2998 colon
# LOX IMVI melanoma = system: LOX IMVI melanoma
# NCI-H522 lung = system: NCI-H522 lung
# OVCAR-8 ovarian = system: OVCAR-8 ovarian
# SK-MEL-28 melanoma = system: SK-MEL-28 melanoma
# SW-620 colon = system: SW-620 colon
SMILES,GI50 (A549 NSCLC),TGI (A549 NSCLC),GI50 (ACHN renal),TGI (ACHN renal),GI50 (CCRF-CEM leukemia),TGI (CCRF-CEM leukemia),GI50 (EKVX NSCLC),TGI (EKVX NSCLC),GI50 (HCC-2998 colon),TGI (HCC-2998 colon),GI50 (LOX IMVI melanoma),TGI (LOX IMVI melanoma),GI50 (NCI-H522 lung),TGI (NCI-H522 lung),GI50 (OVCAR-8 ovarian),TGI (OVCAR-8 ovarian),GI50 (SK-MEL-28 melanoma),TGI (SK-MEL-28 melanoma),GI50 (SW-620 colon),TGI (SW-620 colon)
CCSc1nc(N2CCCCC2)c2cn[nH]c2n1,50.5 µM,> 100 µM,41.2 µM,> 100 µM,34.7 µM,> 100 µM,16.1 µM,> 100 µM,42.6 µM,> 100 µM,55.2 µM,> 100 µM,30.7 µM,> 100 µM,43.6 µM,> 100 µM,57.6 µM,> 100 µM,40.1 µM,> 100 µM
CC(=O)NC(CCCCNC(=O)OC(C)(C)C)C(=O)O (stereo unspecified),,> 100 µM,,> 100 µM,,> 100 µM,,> 100 µM,,> 100 µM,,> 100 µM,,> 100 µM,,> 100 µM,,> 100 µM,,> 100 µM
CCN(CC)CCC(=O)c1ccccc1,,> 100 µM,,29.7 µM,,36.9 µM,,> 100 µM,,> 100 µM,,36 µM,,,,58 µM,,33 µM,,41.1 µM
O=C(O)/C=C/c1cnc[nH]1,,> 500 µM,,,> 500 µM,> 500 µM,,> 500 µM,,> 500 µM,,> 500 µM,,> 500 µM,,> 500 µM,,> 500 µM,,> 500 µM
COc1cccc(C2C(C(=O)O)=C(CO)Oc3cc4c(cc32)OCO4)c1 (stereo unspecified),,,,> 100 µM,,> 100 µM,,> 100 µM,,,,> 100 µM,,> 100 µM,,> 100 µM,,> 100 µM,,> 100 µM
CCOc1ccc(N=Nc2ccc3oc(=O)c(/C(C)=N\NC(=O)CC(=O)Nc4ccc(Cl)cc4)cc3c2)cc1,,43.3 µM,,97.6 µM,,11.4 µM,,34.7 µM,,35.2 µM,,26.5 µM,,50.1 µM,,34.4 µM,,> 100 µM,,38.8 µM
CCOC(=O)C1(C(=O)OCC)CSC1,,> 100 µM,,> 100 µM,,> 100 µM,,,,0.853 µM,,> 100 µM,,> 100 µM,,> 100 µM,,> 100 µM,,> 100 µM
